PMC10793205, “Differential transmetallation of complexes of the anti-cancer thiosemicarbazone, Dp4e4mT: effects on anti-proliferative efficacy, redox activity, oxy-myoglobin and oxy-hemoglobin oxidation” (Chemical Science, 2023)

Assays:
AsPC-1 cells = test: MTT cellular proliferation assay, AsPC-1 pancreatic adenocarcinoma cells; assay type: cell-based, human; conditions: for IC50: 37 °C, MTT, mean ± SD (3 experiments); for Therapeutic index AsPC-1: IC50 of MRC-5 cells/IC50 of AsPC-1 cells, 72 h/37 °C
Method: (§1) The anti-proliferative activity of Dp4e4mT relative to its complexes with Fe(III), Co(III), Ni(II), Cu(II), Zn(II), Ga(III), and Pd(II) was examined over incubation periods of 24-, 48-, and 72 h/37 °C (Table 2). These studies were performed using human SK-N-MC neuroepithelioma and AsPC-1 pancreatic adenocarcinoma cells that we have previously examined to assay other ligands.[15,28,43] […]
(§2) All cell lines were procured from the American Type Culture Collection (ATCC; Manassas, VA). The SK-N-MC neuroepithelioma cell line and the mortal MRC-5 fibroblasts were cultured in minimum essential medium (Sigma-Aldrich), while the AsPC-1 cell line was cultured in Roswell Park Memorial Institute 1640 medium (Thermo Fisher Scientific, MA, USA). Both media were supplemented with 10% fetal calf serum, non-essential amino acids (1 mM), sodium pyruvate (1 mM), L-glutamine (2 mM), penicillin (100 U/mL), streptomycin (100 U/mL), and Fungizone (0.5 µg/mL). Cells were maintained at 37 °C in an incubator under a humidified atmosphere with 5% CO 2, following established protocols. 11 Cellular Proliferation Assay
(§3) Cellular proliferation was evaluated through the established 3-(4,5-dimethylthiazol-2-yl)-2,5-diphenyltetrazolium bromide (MTT) proliferation assay, validated by viable cell counts.12 […]
(§4) Ligands and complexes were dissolved in DMSO to make a stock solution of 10 mM, subsequently diluted in culture media. For cell culture experiments, the DMSO's maximum concentration remained below 0.5% (v/v), with no discernible impact on proliferation.12 MTT […]
(§5) Trypan blue staining.12 Analysis of the data was executed employing MARS Data Analysis Software (BMG LabTech; version 3.30). The concentration of agents necessary to inhibit cellular proliferation by 50% (IC 50) was then calculated. […]

SK-N-MC and AsPC-1 cells = test: MTT cellular proliferation assay, values stated over both tumor cell-types; assay type: cell-based, human; conditions: for Mean therapeutic index: average of the therapeutic indices for SK-N-MC and AsPC-1 vs MRC-5, 72 h/37 °C
Method: The anti-proliferative activity of Dp4e4mT relative to its complexes with Fe(III), Co(III), Ni(II), Cu(II), Zn(II), Ga(III), and Pd(II) was examined over incubation periods of 24-, 48-, and 72 h/37 °C (Table 2). These studies were performed using human SK-N-MC neuroepithelioma and AsPC-1 pancreatic adenocarcinoma cells that we have previously examined to assay other ligands.[15,28,43]
(§6) To examine the selectivity of the Dp4e4mT complexes against neoplastic versus normal mortal cells, their anti-proliferative efficacy was compared to mortal MRC-5 fibroblasts after a 72 h/37 °C incubation (Table 3). […] To further examine selectivity, an in vitro therapeutic index was calculated as per our previous investigations.[28,57,59,66,67] This parameter is derived from the ratio of the IC50 of MRC-5 cells/IC50 of SK-N-MC or AsPC-1 cells; with high ratios indicating greater selective anti-proliferative activity against neoplastic cells (Table 3). The mean therapeutic index is the average of the therapeutic indices calculated for both tumor cell-types. […] The mean therapeutic index of Dp4e4mT exceeded that obtained for clinically trialed DpC (157), as well as that of Dp44mT (112) and DFO (6). […]
as §2, §3, §4, §5

SK-N-MC cells = test: MTT cellular proliferation assay, SK-N-MC neuroepithelioma cells; assay type: cell-based, human; conditions: for IC50: SK-N-MC, 37 °C, MTT, mean ± SD (3 experiments); for Therapeutic index SK-N-MC: IC50 of MRC-5 cells/IC50 of SK-N-MC cells, 72 h/37 °C
Method: as §1, §2, §3, §4, §5

MRC-5 fibroblasts = test: MTT cellular proliferation assay, mortal MRC-5 fibroblasts; assay type: cell-based; conditions: 37 °C, mean ± SD (3 experiments)
Method: as §6, §2, §3, §4, §5

[1] = biological target: T1, oxy-Hb in intact human erythrocytes (Homo sapiens, UniProt P68871+P69905); test: Oxidation of oxy-Hb in intact human erythrocytes; assay type: cell-based; conditions: 10 μM, 3 h/37 °C
T1 construct: Physiologically, oxy-Hb is found in erythrocytes; endogenous in cells; host or cells: intact human erythrocytes from fresh blood of healthy donors
Method: Fig. 7 (A and B) Investigation of the effects of Dp4e4mT and its Fe(III), Co(III), Ni(II), Cu(II), Zn(II), Ga(III), and Pd(II) complexes versus DFO, Dp44mT, DpC and their Fe(III) complexes (10 μM) on met-Hb generation (% zero time) after an incubation of 1–3 h/20 °C with purified oxy-Hb (40 μM). (C) Investigation of the effects of Dp4e4mT and its Fe(III), Co(III), Ni(II), Cu(II), Zn(II), Ga(III), or Pd(II) complexes relative to the positive controls DFO, Dp44mT, DpC, and their Fe(III) complexes (10 μM) on oxy-Hb oxidation in intact human erythrocytes after a 3 h/37 °C incubation. Results are mean ± SD (3 experiments).
Physiologically, oxy-Hb is found in erythrocytes, and in the current investigation, the ligands and complexes (10 μM) were incubated with intact human erythrocytes for 3 h/37 °C to assess their effects on oxy-Hb oxidation (Fig. 7C). As expected from our previous studies,[28,39] […]
In experiments examining the activity of the agents, all complexes were dissolved in 1,2-propanediol, then diluted to 10 µM in PBS (pH 7.2). […]
1800; Shimadzu, Kyoto, Japan). Concentrations of met-Mb and met-Hb, as well as reduced-Mb and reduced-Hb, were determined at 409 nm and 435 nm, respectively. Concentrations of oxy-Mb and oxy-Hb were determined at 544 nm and 582 nm, respectively. 17 Oxidation of Oxy-Hb in Human Erythrocytes
Oxidation of oxy-Hb in human erythrocytes was performed by standard methods using fresh blood from healthy donors after collection in Vacutainer® collection tubes (BD, Plymouth, UK).8 Erythrocytes centrifuged (480 xg/5 min/4°C) and then washed in HBSS, and subsequently resuspended in this buffer. Incubation of the erythrocytes (15% hematocrit) in the absence or presence of the agents (10 μM) was performed for 3 h/37°C. The erythrocytes were […]

T1 sequence (P69905 2-142 limits assumed): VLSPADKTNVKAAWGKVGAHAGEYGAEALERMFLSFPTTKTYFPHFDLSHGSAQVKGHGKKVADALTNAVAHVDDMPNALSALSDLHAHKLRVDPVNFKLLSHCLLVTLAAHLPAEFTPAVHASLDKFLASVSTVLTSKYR
T1 sequence (P68871 2-147 limits assumed): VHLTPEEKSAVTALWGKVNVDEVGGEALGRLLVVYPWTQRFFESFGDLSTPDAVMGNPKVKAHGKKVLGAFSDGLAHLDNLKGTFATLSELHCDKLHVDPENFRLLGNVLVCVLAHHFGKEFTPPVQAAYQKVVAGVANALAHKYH

Row | Structure (SMILES) | IC50 (AsPC-1 cells; Homo sapiens, ASPC1, AsPC-1, 24 h) [nM] | IC50 (AsPC-1 cells; Homo sapiens, ASPC1, AsPC-1, 48 h) [nM] | IC50 (AsPC-1 cells; Homo sapiens, ASPC1, AsPC-1, 72 h) [nM] | Therapeutic index AsPC-1 (AsPC-1 cells) | IC50 (SK-N-MC and AsPC-1 cells; Homo sapiens, SK-N-MC and AsPC-1, after 72 h, read-out: IC50 (range over both cell-types)) [nM] | Mean therapeutic index (SK-N-MC and AsPC-1 cells) | IC50 (SK-N-MC cells; Homo sapiens, 24 h) [nM] | IC50 (SK-N-MC cells; Homo sapiens, 48 h) [nM] | IC50 (SK-N-MC cells; Homo sapiens, 72 h) [nM] | Therapeutic index SK-N-MC (SK-N-MC cells) | IC50 (MRC-5 fibroblasts; Homo sapiens, MRC5, MRC-5, 72 h) [nM] | oxy-Hb oxidation in erythrocytes versus the control (in words) [1] | IC50 (AsPC-1 cells; AsPC-1, 24 h) [nM] | IC50 (AsPC-1 cells; AsPC-1, 48 h) [nM] | IC50 (AsPC-1 cells; AsPC-1, 72 h) [nM] | IC50 (SK-N-MC cells; 24 h) [nM] | IC50 (SK-N-MC cells; 48 h) [nM] | IC50 (SK-N-MC cells; 72 h) [nM] | IC50 (MRC-5 fibroblasts; MRC-5, 72 h) [nM]
1 | CC(=O)N(O)CCCCCNC(=O)CCC(=O)N(O)CCCCCNC(=O)CCC(=O)N(O)CCCCCN [DFO, desferrioxamine, reference compound] | > 100000 | 22760 ± 84 | 3070 ± 585 | 9 | 3070 to 8180 | 6 | > 100000 | 45270 ± 61 | 8180 ± 2460 | 3 | 28910 ± 101 | did not induce any significant (p > 0.05) increase in oxy-Hb oxidation | – | – | – | – | – | – | –
2 | CCN(C)C([S-])=NN=C(c1ccccn1)c1ccccn1.CCN(C)C([S-])=NN=C(c1ccccn1)c1ccccn1.[Cu+2] [[Cu(Dp4e4mT)2]] | – | – | – | 113 | – | 99 | – | – | – | 85 | – | negligible effects on oxy-Hb oxidation | 1140 ± 34 | 44 ± 7 | 3 ± 3 | 516 ± 6 | 34 ± 6 | 4 ± 1 | 342 ± 121
